Columns and labels:
human D1R [1] = target: T1, human D1R (Homo sapiens, UniProt P21728); test: potentiator-mode cAMP assay (HTRF) in SK-N-MC neuroblastoma cells endogenously expressing human D1R; assay type: cell-based; details: for Emax: SK-N-MC, read-out: % maximum increase (efficacy over DA EC70); for EC50: potency of the compound at the DA EC70 concentration
T1 construct: endogenously expressed human D1R in the SK-N-MC cell line (ATCC); host or cells: SK-N-MC human neuroblastoma cells
Method: An in-house chemical library of 250 compounds was screened using an in vitro assay measuring accumulation of cAMP in a human neuroblastoma SK-N-MC cell line stably expressing physiological levels of the D1R but not the D5R.[41] To assess allosteric modulation of the D1R, cells were treated with a fixed concentration of the test compounds (10 μM) for 15 min and then co-incubated with increasing concentrations of the endogenous agonist DA. The cAMP concentration was quantified by homogeneous time-resolved fluorescence energy transfer (HTRF) and the effect of each compound on the DA concentration–response curve was measured.
The PAM efficacy was measured as the percentage of increase over DA EC70 and the potency as the EC50 observed in the concentration–response curve.
Functional studies at human D1 and D2 receptors were carried out in endogenously expressed human D1R in the SK-N-MC cell line (ATCC), and recombinant human D2R stably transfected in an in-house CHO cell line. Cells were thawed and seeded into a black 96-well plate (1 × 10^4 cells/well for SK-N-MC cell line, 5 × 10^3 cells/well for CHO cell line) in Opti-MEM containing 500 μM IBMX (3-isobutyl-1-methylxanthine).

human D1R [2] = target: T1, human D1R; test: as above; assay type: cell-based; details: no DA
[3] = tested on: reserpinized C57BL/6 mice; test: locomotor activity in reserpinized mice; assay type: in vivo, mouse; details: reserpine 2.5 mg/kg sc; 26 30 mg/kg po; L-DOPA 100 or 400 mg/kg ip
Method: The study was carried out in male C57BL/6 wild-type (22–25 g) mice that were acclimatized for 5 days. Animals were randomized based on body weight into six groups (G1 to G6), ten animals per group (n = 10), being group G1 the naïve control group. Animals were fed with standard diet ad libitum. Animals were dosed with subcutaneous administration of reserpine (2.5 mg/kg in DMSO/saline) and after 20 h they were treated with a vehicle (10 mL/kg, po), compound 26 (30 mg/kg, po), L-DOPA (100 or 400 mg/kg, ip) + carbidopa (100 mg/kg, ip) and/or their combination, as indicated in Figure 7. The vehicle employed for compound 26 administration was 5% NMP + 5% solutol HS-15 + 90% normal saline. L-DOPA and carbidopa were administered 30 min prior to start of locomotor activity recording. Compound 26 was administered and 15 min later, mice were placed in the locomotor activity cage to measure the locomotor activity for 60 min (total distance travelled) using ALL Maze version 0.5 automated software enabled with video tracking system. After the activity sessions, raw data were reduced using ALL Maze 5.0 software and Microsoft Excel. Statistical analysis was done with GraphPad Prism-5 using one way ANOVA followed by Dunnett’s test/Tukey’s post hoc test and/or two-way ANOVA followed by Bonferroni post hoc test. Data were considered statistically significant, if P value was less than 0.05.

[4] = concentration–response curve of the compound over DA EC70

T1 sequence (P21728 whole entry): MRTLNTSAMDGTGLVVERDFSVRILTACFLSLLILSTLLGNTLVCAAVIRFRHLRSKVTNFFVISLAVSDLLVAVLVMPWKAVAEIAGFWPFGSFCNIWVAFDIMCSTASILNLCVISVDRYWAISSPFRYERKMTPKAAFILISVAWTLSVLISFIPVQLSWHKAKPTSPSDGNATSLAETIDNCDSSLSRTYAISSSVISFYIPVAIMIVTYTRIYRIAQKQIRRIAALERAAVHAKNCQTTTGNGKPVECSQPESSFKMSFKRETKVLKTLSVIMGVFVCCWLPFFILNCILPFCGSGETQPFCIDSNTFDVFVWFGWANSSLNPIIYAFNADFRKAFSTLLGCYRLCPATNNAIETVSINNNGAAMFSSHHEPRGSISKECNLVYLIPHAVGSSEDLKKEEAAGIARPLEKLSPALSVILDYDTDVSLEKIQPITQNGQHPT

Emax (human D1R [1]; [4])	EC50 (human D1R [1])	SMILES	further results
62%	18.5 ± 2.7 µM	O=Cc1ccc(-c2ccccc2OC(F)F)cc1 [Compound 7]	% maximum increase (efficacy over DA EC70) (human D1R [1]; [4]): 62 ± 10%
30 ± 8%	13.1 ± 2.8 µM	CS(=O)(=O)c1ccc(-c2ccccc2OCF)cc1 [Compound 20]	
		C[S@](=N)(=O)c1ccc(-c2ccccc2OCF)cc1 [(S)-26, (S)-2-(Fluoromethoxy)-4′-(S-methanesulfonimidoyl)-1,1′-biphenyl]	cAMP response in the absence of DA (agonist activity) (human D1R [2]): no agonist activity
42 ± 7%	4.93 ± 1.2 µM	NS(=O)(=O)c1ccc(-c2ccccc2OCF)cc1 [Compound 18]	
35 ± 7%	10.8 ± 1.6 µM	O=Cc1ccc(-c2cccc(OC(F)F)c2)cc1 [Compound 6]	
73 ± 6%	21.7 ± 5.8 µM	C[S+]([O-])c1ccc(-c2ccccc2OCF)cc1 (stereo not shown) [Compound 23]	
33 ± 3%	15.9 ± 2.7 µM	CN=S(C)(=O)c1ccc(-c2ccccc2OCF)cc1 (stereo not shown) [Compound 27]	
37 ± 5%	2.3 ± 0.4 µM	O=Cc1ccc(-c2ccc(OC(F)F)cc2)cc1 [Compound 5]	
50 ± 7%	30.2 ± 2.4 µM	CCS(=N)(=O)c1ccc(-c2ccccc2OCF)cc1 (stereo not shown) [Compound 25]	
		C[S@@](=N)(=O)c1ccc(-c2ccccc2OCF)cc1 [Compound (R)-26, (R)-2-(Fluoromethoxy)-4′-(S-methanesulfonimidoyl)-1,1′-biphenyl]	cAMP response in the absence of DA (agonist activity) (human D1R [2]): no agonist activity
101 ± 10%	21.8 ± 3.6 µM	O=Cc1ccc(-c2ccccc2SC(F)F)cc1 [Compound 10, 2′-[(Difluoromethyl)sulfanyl][1,1′-biphenyl]-4-carbaldehyde]	melting point: 46 to 47 °C
28 ± 8%	1.26 ± 0.7 µM	CNS(=O)(=O)c1ccc(-c2ccccc2OCF)cc1 [Compound 19]	
		N[C@@H](Cc1ccc(O)c(O)c1)C(=O)O [L-DOPA, reference compound]	recovery of decreased locomotor activity, substance alone [3]: small recovery of decreased locomotor activity
